Results taken from ChEMBL document CHEMBL1201862, “PubChem BioAssay data set” (2004).
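Five concentrations, 48 hours, 96-well plates. Here, GI50 denotes the concentration required for 50% inhibition of growth.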 Active and inactive are the calls of the source. No stated cut-off is given here; in the data, active = GI50 up to about 1.1 µM and inactive = higher.

Assays:
Test in all cases: DTP human tumour cell line panel, 48 h
SNB-19 = system: SNB-19
RXF 393 = system: RXF 393
NCI-H23 = system: NCI-H23
SF-268 = system: SF-268
CAKI-1 = system: CAKI-1
IGROV-1 = system: IGROV-1
SW-620 = system: SW-620
OVCAR-3 = system: OVCAR-3
Malme-3M = system: Malme-3M
HOP-62 = system: HOP-62
OVCAR-8 = system: OVCAR-8
OVCAR-5 = system: OVCAR-5
SK-OV-3 = system: SK-OV-3
SNB-75 = system: SNB-75
UO-31 = system: UO-31
RPMI-8226 = system: RPMI-8226
HL-60 = system: HL-60
SR = system: SR

| SMILES | GI50 (SNB-19) | GI50 (RXF 393) | GI50 (NCI-H23) | GI50 (SF-268) | GI50 (CAKI-1) | GI50 (IGROV-1) | GI50 (SW-620) | GI50 (OVCAR-3) | GI50 (Malme-3M) | GI50 (HOP-62) | GI50 (OVCAR-8) | GI50 (OVCAR-5) | GI50 (SK-OV-3) | GI50 (SNB-75) | GI50 (UO-31) | GI50 (RPMI-8226) | GI50 (HL-60) | GI50 (SR) |
| --- | --- | --- | --- | --- | --- | --- | --- | --- | --- | --- | --- | --- | --- | --- | --- | --- | --- | --- |
| COc1cc(OC)c2ssc3c(OC)cc(OC)c4ssc1c2-c43 | > 100 µM (inactive) | > 100 µM (inactive) | > 100 µM (inactive) | > 100 µM (inactive) | > 100 µM (inactive) | > 100 µM (inactive) | > 100 µM (inactive) | > 100 µM (inactive) | > 100 µM (inactive) | > 100 µM (inactive) | > 100 µM (inactive) | > 100 µM (inactive) | > 100 µM (inactive) | 31.3 µM (inactive) | – | – | – | – |
| O=C(Nc1ccc(Cl)cc1Cl)C1C(=O)N(c2ccc(Cl)cc2Cl)C(=O)/C1=N\Nc1ccc([N+](=O)[O-])cc1[N+](=O)[O-] (centres undefined) | 39.1 µM (inactive) | – | 23.9 µM (inactive) | 22.3 µM (inactive) | 54.5 µM (inactive) | 83 µM (inactive) | > 100 µM (inactive) | 47.2 µM (inactive) | 64 µM (inactive) | 45.8 µM (inactive) | 60.8 µM (inactive) | 44.5 µM (inactive) | > 100 µM (inactive) | 27.3 µM (inactive) | 15.8 µM (inactive) | 22.7 µM (inactive) | 35.2 µM (inactive) | – |
| O=C(Nc1ccc(Cl)cc1Cl)C1C(=O)C(=O)N(c2ccc(Cl)cc2Cl)C1=O (centres undefined) | > 100 µM (inactive) | 37.8 µM (inactive) | > 100 µM (inactive) | > 100 µM (inactive) | > 100 µM (inactive) | > 100 µM (inactive) | > 100 µM (inactive) | 38.5 µM (inactive) | > 100 µM (inactive) | > 100 µM (inactive) | > 100 µM (inactive) | > 100 µM (inactive) | > 100 µM (inactive) | > 100 µM (inactive) | > 100 µM (inactive) | – | > 100 µM (inactive) | – |
| CCOC(=O)C1=C(C)C2C3C(=O)OC(=O)C3C1(C)C1C(=O)OC(=O)C21 (centres undefined) | > 100 µM (inactive) | > 100 µM (inactive) | > 100 µM (inactive) | > 100 µM (inactive) | – | > 100 µM (inactive) | > 100 µM (inactive) | > 100 µM (inactive) | > 100 µM (inactive) | > 100 µM (inactive) | > 100 µM (inactive) | – | > 100 µM (inactive) | > 100 µM (inactive) | > 100 µM (inactive) | > 100 µM (inactive) | > 100 µM (inactive) | – |
| O=C1NC(=O)C2C(=O)NC(=O)C1C2Cc1ccco1 (centres undefined) | > 100 µM (inactive) | > 100 µM (inactive) | > 100 µM (inactive) | > 100 µM (inactive) | > 100 µM (inactive) | > 100 µM (inactive) | > 100 µM (inactive) | > 100 µM (inactive) | > 100 µM (inactive) | – | > 100 µM (inactive) | > 100 µM (inactive) | > 100 µM (inactive) | > 100 µM (inactive) | > 100 µM (inactive) | > 100 µM (inactive) | > 100 µM (inactive) | – |
| Clc1cccc(C2N3CCCCC3[C@@H]3c4[nH]c5ccccc5c4CCN23)c1 (some centres undefined) | 55 µM (inactive) | 27 µM (inactive) | 22 µM (inactive) | 33.1 µM (inactive) | 45 µM (inactive) | 50.8 µM (inactive) | 44.4 µM (inactive) | 34.8 µM (inactive) | 18.3 µM (inactive) | 46.9 µM (inactive) | 41.4 µM (inactive) | 21 µM (inactive) | 46.9 µM (inactive) | 32.8 µM (inactive) | 24.9 µM (inactive) | 29 µM (inactive) | 18.7 µM (inactive) | – |
| O=C(/C=N/O)Nc1ccc(Cl)c(I)c1 | 23.9 µM (inactive) | 16.8 µM (inactive) | 17.8 µM (inactive) | 19.2 µM (inactive) | 14.3 µM (inactive) | 8.61 µM (inactive) | 34.4 µM (inactive) | 13.6 µM (inactive) | 25.5 µM (inactive) | 23.1 µM (inactive) | 28.9 µM (inactive) | 21.6 µM (inactive) | 17.8 µM (inactive) | – | 12.1 µM (inactive) | 20 µM (inactive) | 19.3 µM (inactive) | 15.7 µM (inactive) |
| Cc1cc(C)nc(NS(=O)(=O)c2ccc(NC(=O)c3cccc4c(Nc5ccc(S(=O)(=O)Nc6nc(C)cc(C)n6)cc5)c5ccccc5nc34)cc2)n1 | 10.2 µM (inactive) | 14.7 µM (inactive) | 20.3 µM (inactive) | 12.9 µM (inactive) | 22.8 µM (inactive) | 32.8 µM (inactive) | 28.1 µM (inactive) | 19.9 µM (inactive) | 27.6 µM (inactive) | 21 µM (inactive) | 24.7 µM (inactive) | > 10 µM (inactive) | 26 µM (inactive) | 3.44 µM (inactive) | 17.7 µM (inactive) | 20.2 µM (inactive) | 18.1 µM (inactive) | – |
| Cc1ccc(NC(=O)CCc2nnc(S)[nH]2)cc1 | > 100 µM (inactive) | – | > 100 µM (inactive) | > 100 µM (inactive) | > 100 µM (inactive) | > 100 µM (inactive) | > 100 µM (inactive) | > 100 µM (inactive) | > 100 µM (inactive) | > 100 µM (inactive) | > 100 µM (inactive) | > 100 µM (inactive) | > 100 µM (inactive) | 83.2 µM (inactive) | > 100 µM (inactive) | > 100 µM (inactive) | > 100 µM (inactive) | > 100 µM (inactive) |
| CN(C)CC(C)(C)C(/C=C/c1ccccc1)=N\Nc1ccccc1 | 3.23 µM (inactive) | 18 µM (inactive) | 10.6 µM (inactive) | 0.172 µM (active) | – | 0.723 µM (active) | 0.375 µM (active) | 1.44 µM (inactive) | 10.4 µM (inactive) | 2.77 µM (inactive) | 12.8 µM (inactive) | 0.31 µM (active) | 5 µM (inactive) | 14.6 µM (inactive) | 0.0836 µM (active) | 1.68 µM (inactive) | 1.16 µM (inactive) | 0.798 µM (active) |
| Cc1cc(O)c(C=O)c(C)c1CCC1(C)C=Cc2cc(O)ccc2O1 (centres undefined) | 38.9 µM (inactive) | – | 16.7 µM (inactive) | 30.3 µM (inactive) | 19.2 µM (inactive) | 26.2 µM (inactive) | 20.9 µM (inactive) | 18.5 µM (inactive) | 24.8 µM (inactive) | 20 µM (inactive) | 17.1 µM (inactive) | 30.5 µM (inactive) | 23.9 µM (inactive) | 22.6 µM (inactive) | – | 20.9 µM (inactive) | 22.8 µM (inactive) | > 100 µM (inactive) |
| N#C/C(=C1\SC(/N=N/c2ccccc2)C(=O)N1c1ccccc1)c1nc2ccccc2[nH]1 (centres undefined) | > 100 µM (inactive) | 28.6 µM (inactive) | > 100 µM (inactive) | > 100 µM (inactive) | > 100 µM (inactive) | 20.5 µM (inactive) | > 100 µM (inactive) | 68.1 µM (inactive) | > 100 µM (inactive) | 23.4 µM (inactive) | > 100 µM (inactive) | > 100 µM (inactive) | 66.5 µM (inactive) | 36.7 µM (inactive) | 24.2 µM (inactive) | – | 48.8 µM (inactive) | – |
| Fc1ccc(/N=C2C=C/C(=N\c3ccc(F)cc3)c3ccccc3\2)cc1 | 70.5 µM (inactive) | 92.3 µM (inactive) | 72.1 µM (inactive) | 40.2 µM (inactive) | – | > 100 µM (inactive) | > 100 µM (inactive) | > 100 µM (inactive) | > 100 µM (inactive) | 31.4 µM (inactive) | > 100 µM (inactive) | > 100 µM (inactive) | > 100 µM (inactive) | > 100 µM (inactive) | > 100 µM (inactive) | > 100 µM (inactive) | > 100 µM (inactive) | > 100 µM (inactive) |
| O=C(CC1(O)C(=O)Nc2ccc([N+](=O)[O-])cc21)c1ccc2ccccc2c1 (centres undefined) | > 100 µM (inactive) | > 100 µM (inactive) | > 100 µM (inactive) | > 100 µM (inactive) | – | > 100 µM (inactive) | > 100 µM (inactive) | > 100 µM (inactive) | > 100 µM (inactive) | > 100 µM (inactive) | > 100 µM (inactive) | > 100 µM (inactive) | > 100 µM (inactive) | > 100 µM (inactive) | > 100 µM (inactive) | > 100 µM (inactive) | > 100 µM (inactive) | > 100 µM (inactive) |
| CC1OC(=O)N2CCC=CC12 (centres undefined) | > 100 µM (inactive) | > 100 µM (inactive) | > 100 µM (inactive) | > 100 µM (inactive) | – | > 100 µM (inactive) | > 100 µM (inactive) | > 100 µM (inactive) | > 100 µM (inactive) | – | > 100 µM (inactive) | > 100 µM (inactive) | > 100 µM (inactive) | > 100 µM (inactive) | > 100 µM (inactive) | > 100 µM (inactive) | – | – |
| COC(=O)C1C2C=CC(C2)N1[C@@H](C)c1ccccc1 (some centres undefined) | > 100 µM (inactive) | – | > 100 µM (inactive) | > 100 µM (inactive) | > 100 µM (inactive) | > 100 µM (inactive) | > 100 µM (inactive) | > 100 µM (inactive) | > 100 µM (inactive) | > 100 µM (inactive) | > 100 µM (inactive) | > 100 µM (inactive) | > 100 µM (inactive) | > 100 µM (inactive) | > 100 µM (inactive) | > 100 µM (inactive) | > 100 µM (inactive) | > 100 µM (inactive) |
| CC(C)C1CC(O)O[C@@H]([C@@H](C)[C@H]2CC(=O)[C@@H]3[C@@H]4[C@@H](O)[C@H](O)[C@H]5[C@@H](O)[C@H](O)CC[C@]5(C)[C@H]4CC[C@]23C)C1 (some centres undefined) | 37.8 µM (inactive) | 13.3 µM (inactive) | 36 µM (inactive) | 39.9 µM (inactive) | – | 24.5 µM (inactive) | > 100 µM (inactive) | > 100 µM (inactive) | 77.4 µM (inactive) | 21.2 µM (inactive) | 54.1 µM (inactive) | – | 34.5 µM (inactive) | 22.2 µM (inactive) | > 100 µM (inactive) | – | > 100 µM (inactive) | > 100 µM (inactive) |
